{
  "source": "patent US6008189A",
  "about": "“Intravaginal preparation containing physiologically active peptide” (Teikoku Seiyaku Kabushiki Kaisha, priority 1993, dated 1999)",
  "type_in_all_cases": "in vivo, rat",
  "key": {"[1]": {"system": "Ovariectomized female Wistar rats", "test": "Experiment 3: serum calcium reduction, effect of various sucrose fatty acid esters", "settings": "with citric acid, 20 μg intravaginal", "protocol": "(§1) An intravaginal suppository was administered into the rat's vagina, and the blood was collected periodically (2, 4 and 6 hours after administration of the test preparation).\n(§2) The serum was separated, and the calcium level in the serum was determined by using a kit for determination of calcium (Calcium C Test Wako; manufactured by Wako Pure Chemical Industries, Ltd.) (n=3).\nIn the same manner, there were prepared various sucrose fatty acid esters having the same HLB value but being combined with a different fatty acid (Table B), and four kinds of intravaginal suppositories for rats were prepared by using each 100 mg of sucrose fatty acid ester.\n(§3) In the same manner as in Experiment 1, each intravaginal suppository was administered to the rat's vagina, and the blood was collected periodically (2, 4 and 6 hours after administration of intravaginal suppository), and the calcium level in the serum thereof was determined (n=4)."}, "[2]": {"system": "Ovariectomized female Wistar rats", "test": "Experiment 1: serum calcium reduction after intravaginal suppository, sucrose fatty acid ester plus citric acid versus each alone", "settings": "20 μg intravaginal", "protocol": "To the mixture was added a commercially available base for intravaginal preparation; Witepsol S-55 (which is prepared from Witepsol E-85 so as to give a final intravaginal suppository having a melting point of 36.5° C., manufactured by Hils Co., Ltd., former Diamit Novel Co., Ltd) which was homogenized by previously warming and stirring thereof so as to give an intravaginal suppository with the total weight of 5.00 g. […] The mixture was poured into a tube (inside diameter: about 3 mm) made of teflon at about 40° C., cooled to solidify, and taken out from the tube. The solidified mixture was cut into pieces (weight: 50 mg) to give intravaginal suppositories for rats containing human calcitonin (20 μg/each). There were also obtained two kinds of intravaginal suppositories prepared by adding citric acid (50 mg) only, and prepared by adding a sucrose fatty acid ester (100 mg) only, likewise. There were obtained intravaginal suppositories containing only human calcitonin without citric acid nor a sucrose fatty acid ester, likewise, which are used as control.\nas §1, §2"}, "[3]": {"system": "Ovariectomized female Wistar rats", "test": "Experiment 2: serum calcium reduction, effect of various suppository bases", "settings": "S-970 and citric acid, 20 μg intravaginal", "protocol": "as §1, §2, §3"}, "[4]": {"system": "Ovariectomized female Wistar rats", "test": "Experiment 5: serum calcium reduction, sucrose fatty acid ester with various organic acids", "settings": "20 μg intravaginal", "protocol": "as §1, §2\nIn the same manner as in Experiment 1, each intravaginal suppository was administered to the rat's vagina, and the blood was collected periodically (2, 4 and 6 hours after administration of intravaginal suppository), and the calcium level in the serum thereof was determined (n=5)."}, "[5]": {"system": "Ovariectomized female Wistar rats", "test": "Experiment 4: serum calcium reduction, effect of sucrose fatty acid ester concentration", "settings": "sucrose fatty acid ester (S-970) 2 w/w % of suppository; citric acid 100 mg per 5.00 g; 20 μg intravaginal; 2 hr", "protocol": "as §1, §2\nHuman calcitonin (2 mg) was precisely measured, and thereto were added citric acid (100 mg) and Ryoto-Sugar Ester S-970 (50 mg, 100 mg or 400 mg), and the mixture was mixed well.\nIn the same manner as in Experiment 1, each intravaginal suppository was administered to the rat's vagina, and the blood was collected periodically (2 and 4 hours after administration of intravaginal suppository), and the calcium level in the serum thereof was determined (n=3)."}, "[6]": {"system": "Ovariectomized female Wistar rats", "test": "Experiment 6: serum calcium reduction, effect of organic acid concentration", "settings": "pH 3.5, S-970 100 mg per 5.00 g, 20 μg intravaginal", "protocol": "as §1, §2\n(§4) In the same manner as in Experiment 1, each intravaginal suppository was administered to the rat's vagina, and the blood was collected periodically (2, 4 and 6 hours after administration of intravaginal suppository), and the calcium level in the serum thereof was determined (n=3)."}, "[7]": {"system": "Ovariectomized female Wistar rats", "test": "Experiment 7: serum calcium reduction, effect of pH of the solution in the suppository", "settings": "citric acid and S-970, 20 μg intravaginal", "protocol": "as §1, §2, §4"}},
  "data": [
    {"substance": "Human calcitonin", "values": [
      {"measurement": "Reduction rate (%) of calcium level in the serum", "setting": "[1]; Ryoto-Sugar Ester (S-570), HLB 5, stearic acid, 6 hr", "value": 12.0, "unit": "%"},
      {"measurement": "Reduction rate (%) of calcium level in the serum", "setting": "[1]; Ryoto-Sugar Ester L-595 + L-1695 3:2, HLB 9, lauric acid, 2 hr", "value": 11.0, "unit": "%"},
      {"measurement": "Reduction rate (%) of calcium level in the serum", "setting": "[1]; Ryoto-Sugar Ester L-595 + L-1695 3:2, HLB 9, lauric acid, 6 hr", "value": 9.7, "unit": "%"},
      {"measurement": "Reduction rate (%) of calcium level in the serum", "setting": "[1]; Ryoto-Sugar Ester P-070 + P-1670 4:5, HLB 9, palmitic acid, 2 hr", "value": 8.2, "unit": "%"},
      {"measurement": "Reduction rate (%) of calcium level in the serum", "setting": "[1]; Ryoto-Sugar Ester S-370 + S-1670 5:6, HLB 9, stearic acid, 2 hr", "value": 6.9, "unit": "%"},
      {"measurement": "Reduction rate (%) of calcium level in the serum", "setting": "[1]; Ryoto-Sugar Ester S-970 1:0 (control), HLB 9, stearic acid, 2 hr (Table 4)", "value": 6.3, "unit": "%"},
      {"measurement": "Reduction rate (%) of calcium level in the serum", "setting": "[1]; Ryoto-Sugar Ester S-970 1:0 (control), HLB 9, stearic acid, 6 hr (Table 4)", "value": 11.0, "unit": "%"},
      {"measurement": "Reduction rate (%) of calcium level in the serum", "setting": "[2]; Control: suppository with human calcitonin only, no citric acid nor ester, 2 hr", "value": 2.6, "unit": "%"},
      {"measurement": "Reduction rate (%) of calcium level in the serum", "setting": "[2]; Control: suppository with human calcitonin only, no citric acid nor ester, 4 hr", "value": 2.2, "unit": "%"},
      {"measurement": "Reduction rate (%) of calcium level in the serum", "setting": "[2]; Control: suppository with human calcitonin only, no citric acid nor ester, 6 hr", "value": 3.8, "unit": "%"},
      {"measurement": "Reduction rate (%) of calcium level in the serum", "setting": "[2]; suppository with citric acid only, 2 hr", "value": 9.5, "unit": "%"},
      {"measurement": "Reduction rate (%) of calcium level in the serum", "setting": "[2]; suppository with citric acid only, 4 hr", "value": 8.0, "unit": "%"},
      {"measurement": "Reduction rate (%) of calcium level in the serum", "setting": "[2]; suppository with citric acid only, 6 hr", "value": 5.7, "unit": "%"},
      {"measurement": "Reduction rate (%) of calcium level in the serum", "setting": "[3]; base Cacao butter, 6 hr", "value": 8.3, "unit": "%"},
      {"measurement": "Reduction rate (%) of calcium level in the serum", "setting": "[3]; base Witepsol S-55, 6 hr", "value": 13.0, "unit": "%"},
      {"measurement": "Reduction rate (%) of calcium level in the serum", "setting": "[3]; base Witepsol W-35, 2 hr", "value": 6.6, "unit": "%"},
      {"measurement": "Reduction rate (%) of calcium level in the serum", "setting": "[4]; organic acid Citric acid (pH 4) with Ryoto-Sugar Ester R-970, 6 hr", "value": 8.4, "unit": "%"},
      {"measurement": "Reduction rate (%) of calcium level in the serum", "setting": "[4]; organic acid Lactic acid (pH 4) with Ryoto-Sugar Ester R-970, 2 hr", "value": 17.0, "unit": "%"},
      {"measurement": "Reduction rate (%) of calcium level in the serum", "setting": "[4]; organic acid Lactic acid (pH 4) with Ryoto-Sugar Ester R-970, 6 hr", "value": 5.4, "unit": "%"},
      {"measurement": "Reduction rate (%) of calcium level in the serum", "setting": "[4]; organic acid Malic acid (pH 4) with Ryoto-Sugar Ester R-970, 4 hr", "value": 13.0, "unit": "%"},
      {"measurement": "Reduction rate (%) of calcium level in the serum", "setting": "[4]; organic acid Malic acid (pH 4) with Ryoto-Sugar Ester R-970, 6 hr", "value": 7.0, "unit": "%"},
      {"measurement": "Reduction rate (%) of calcium level in the serum", "setting": "[4]; organic acid Tartaric acid (pH 4) with Ryoto-Sugar Ester R-970, 4 hr", "value": 8.0, "unit": "%"},
      {"measurement": "Reduction rate (%) of calcium level in the serum", "setting": "[4]; organic acid Tartaric acid (pH 4) with Ryoto-Sugar Ester R-970, 6 hr", "value": 3.4, "unit": "%"},
      {"measurement": "Reduction rate (%) of calcium level in the serum", "setting": "[5]", "value": 8.0, "unit": "%"},
      {"measurement": "Reduction rate (%) of calcium level in the serum", "setting": "[6]; citric acid 1 w/w % of suppository, 6 hr", "value": 9.2, "unit": "%"},
      {"measurement": "Reduction rate (%) of calcium level in the serum", "setting": "[6]; citric acid 2 w/w % of suppository, 6 hr", "value": 8.2, "unit": "%"},
      {"measurement": "Reduction rate (%) of calcium level in the serum", "setting": "[6]; citric acid 5 w/w % of suppository, 6 hr", "value": 7.5, "unit": "%"},
      {"measurement": "Reduction rate (%) of calcium level in the serum", "setting": "[6]; citric acid 10 w/w % of suppository, 4 hr", "value": 19.0, "unit": "%"},
      {"measurement": "Reduction rate (%) of calcium level in the serum", "setting": "[6]; citric acid 10 w/w % of suppository, 6 hr", "value": 5.0, "unit": "%"},
      {"measurement": "Reduction rate (%) of calcium level in the serum", "setting": "[7]; pH of the solution in suppository 3.0, 2 hr", "value": 11.0, "unit": "%"},
      {"measurement": "Reduction rate (%) of calcium level in the serum", "setting": "[7]; pH of the solution in suppository 3.0, 4 hr", "value": 22.0, "unit": "%"},
      {"measurement": "Reduction rate (%) of calcium level in the serum", "setting": "[7]; pH of the solution in suppository 3.0, 6 hr", "value": 8.7, "unit": "%"},
      {"measurement": "Reduction rate (%) of calcium level in the serum", "setting": "[7]; pH of the solution in suppository 3.5, 2 hr", "value": 9.4, "unit": "%"},
      {"measurement": "Reduction rate (%) of calcium level in the serum", "setting": "[7]; pH of the solution in suppository 3.5, 6 hr", "value": 8.8, "unit": "%"},
      {"measurement": "Reduction rate (%) of calcium level in the serum", "setting": "[7]; pH of the solution in suppository 4.0, 2 hr", "value": 9.4, "unit": "%"},
      {"measurement": "Reduction rate (%) of calcium level in the serum", "setting": "[7]; pH of the solution in suppository 4.5, 2 hr", "value": 9.5, "unit": "%"},
      {"measurement": "Reduction rate (%) of calcium level in the serum", "setting": "[7]; pH of the solution in suppository 4.5, 6 hr", "value": 9.1, "unit": "%"},
      {"measurement": "Reduction rate (%) of calcium level in the serum", "setting": "[7]; pH of the solution in suppository 5.0, 6 hr", "value": 2.7, "unit": "%"},
      {"measurement": "Reduction rate (%) of calcium level in the serum", "setting": "[7]; pH of the solution in suppository 5.5, 2 hr", "value": 8.1, "unit": "%"},
      {"measurement": "Reduction rate (%) of calcium level in the serum", "setting": "[7]; pH of the solution in suppository 5.5, 6 hr", "value": 4.3, "unit": "%"}
    ]}
  ]
}
